Experiments:
GSH:GSSG ratio = test: Change in GSH:GSSG ratio in blood cells of dogs consuming DL-alpha lipoic acid in an extruded food; assay type: in vivo, dog
Text: (§1) 30 adult, random source, dogs were utilized for this study. Dogs were at least 10 months of age, not pregnant, not lactating and of reasonable body weight prior to start of test. Animals were randomized into 5 groups for dietary treatment with 3 males and 3 females per each group.
All dogs were fed a control food (0 ppm dl-alpha-lipoic acid added) that met or exceeded all recommendations for nutrients as proposed by the American Association of Feed Control Officials (AAFCO 2000) during a 2 week prefeeding period (Table 2). Following the prefeeding period dogs were randomized into 5 treatment groups with one of the following dl-alpha lipoic acid target-inclusions (dry matter basis): 0 ppm, 150 ppm, 1500 ppm, 3000 ppm, 4500 ppm. In all diets, control and alpha lipoic acid, Vitamin E was added and was present at a level of 600-1000 International Units and Vitamin C was added at levels of 100-200 ppm.
Blood was collected aseptically for complete blood count, and blood biochemistry analysis 2 weeks prior to start and again at […], 56, 84, 112, 140 and 168 days of the study. In addition, 15 ml of whole blood was collected for isolation of lymphocytes at day 0, 28 and 84 of the dietary intervention.
Heparinized whole blood was layered onto a 50 ml Accuspin conical centrifuge tube (Sigma Chemical) and an equal volume of Phosphate buffered saline (PBS) was added. Samples were centrifuged at 700 g for 30 minutes without brake. The monocyte layer was harvested, transferred to a 15 ml conical centrifuge tube, resuspended in 1-3 ml of PB, and centrifuged as before (First wash). A second wash was performed as the first wash. Finally, cells were harvested and suspended in perchloric acid (10% w/v) and frozen at −70° C., until analysis.
Samples were transferred from −70° C. freezer into a cooler with dry ice in it. Vials were centrifuged at 12,000 rpm for 5 minutes in a refrigerated centrifuge. An aliquot of supernatant for glutathione (GSH) analysis was transferred to a conical test tube.
Derivatization of the acid soluble extracts was by the method of Reed and coworkers (Fariss et al) as modified by Jones (Jones et al)
Briefly, 150 μL extract or external standards were added into a 1.5 ml Eppendorf tube followed by addition of 20μγ-Glu-Glu internal standard and 50 μL IAA added followed by mixing. The solution was adjusted to pH about 10 (purple color) by using KOH—KHCO3 working solution. Solutions were incubated 1 hr, under room temperature in the dark. Sanger's reagent was added at the same volume as of the total volume and the solution was incubated overnight (20 hrs) in the dark at room temperature.
After incubation, the solution was centrifuged at 12000 rpm for 5 minutes with the supernatant transferred into another 1.5 ml eppendorf tube.
Solvents and separation conditions were as described (Fariss, Jones). Levels of GSH and GSSG were quantified relative to authentic standards. Gamma-glutamyl-glutamate was used as an internal standard to assess derivatization efficiency.
Comparison of values for clinical chemistry, hematology and body weights vs baseline were analyzed by way of paired t-test on SAS for windows with significance set at P<0.05. Means of values at each measured time point were separated by a one-way ANOVA with significance set at P<0.05. The difference in GSH:GSSG between day 84 and baseline were analyzed between groups by way of SAS for windows in a one-way ANOVA with significance set at P<0.05.

dogs [1] = test: 6 month feeding study of dl-alpha-lipoic acid in dogs: body weight, physical examination, safety; assay type: in vivo
Text: as §1
All dogs were fed a control food (0 ppm dl-alpha-lipoic acid added) that met or exceeded all recommendations for nutrients as proposed by the American Association of Feed Control Officials (AAFCO 2000) during a 2 week prefeeding period (Table 2). […]
Test foods were the sole source of nutrients except for water. […] After dogs were selected and initial body weights taken, a food dose was calculated for each dog based on the expected ME of the food. Initial food dose calculations were based on the maintenance energy requirement (MER) for the dog modified by a factor to account for normal activity as calculated by the following formula: […]
Dogs were weighed weekly and had food doses adjusted as needed in order to feed enough food to maintain their optimal body weight. Optimal body weight was determined to be 3 on a 5 point scale. […] All measures of body weight and food intake were recorded. […]
Comparison of values for clinical chemistry, hematology and body weights vs baseline were analyzed by way of paired t-test on SAS for windows with significance set at P<0.05. […]

dogs [2] = test: Body composition (DEXA) of dogs over 90 days; assay type: in vivo, dog
Text: 30 dogs were used to determine the effect of lipoic acid when compared to an AAFCO control food or a test food containing fish oil.
Table 9 illustrates Dual Energy X-Ray Absorptiometry (DEXA) measurement for dogs after being fed a control diet compared with dogs fed a pet food including lipoic acid for 90 days. The measurement of body fat using DEXA is more accurate than body weight for assessing health. A dog can have a lot of muscle, but be considered “over-weight” by many height/weight charts. The opposite can also be true—a dog can have a lot of fat and little muscle and be “over-fat” but not overweight.

plasma metabolites = test: Metabolomics: fold change in metabolites measured in the blood at day 30; assay type: in vivo, dog
Experimental: Metabolomics: Plasma metabolites were analyzed and were compared as fold change relative to the control fed dogs.

[3] = tested on: genes related to cartilage and energy metabolism; test: Differential gene expression profile in whole blood (canine 2 Affymetrix genechips); assay type: in vivo, dog
Text: A differential gene expression profile was studied between an AAFCO control food, a food containing fish oil, and a food containing lipoic acid. At a minimum of 1.3 fold change, a list of 1212 genes was generated compared to the AAFCO control and 1896 genes compared to the food containing fish oil at d 30.
RNA extraction: Total RNAs were isolated from whole blood samples using the PAXgene RNA isolation kit. All measurements were done with the canine 2 Affymetrix genechips. For statistical analysis, all measurements were normalized with RMA. All analysis was preformed using Partek. An ANOVA t-test was performed for genes that are differentially expressed between the control and test foods were selected based on p-value cutoff 0.1, fold change >+/−1.3.

dogs [4] = test: Percentage of animals classifying genomically fat; assay type: in vivo, dog
Text: Table 6 illustrates the percentage of dogs classified as genomically fat after being fed a control diet compared with dogs fed a control plus fish oil and a control plus lipoic acid for 30 days.

[5] = tested on: type II collagen C-propeptide and carboxy-terminal crosslinked telopeptide fragment of type II collagen; test: Serum cartilage markers by ELISA; assay type: in vivo, dog; settings: vs a similar food without lipoic acid, day 0 as covariate
Experimental: Biomarker measurements: Serum cartilage markers were measured using ELISA based kits to determine concentrations of cartilage markers. Day 0 was used as a covariate in the analysis to adjust for baseline values.

[6] = body composition over 90 days, dogs
[7] = dogs fed a food containing lipoic acid
[8] = day 30, day 0 values as covariate
[9] = lipoic acid vs. control, cartilage metabolism
[10] = lipoic acid vs. control, energy metabolism
[11] = lipoic acid vs. fish oil, cartilage metabolism
[12] = lipoic acid vs. fish oil, energy metabolism

O=C(O)CCCCC1CCSS1 (racemic) [Lipoic Acid, dl-alpha-lipoic acid]
Difference in GSH:GSSG ratio- day 0 to day 84 compared to baseline food (GSH:GSSG ratio; 150 ppm inclusion in extruded food, mean +/- spread): 70 +/− 20 | Difference in GSH:GSSG ratio- day 0 to day 84 compared to baseline food (GSH:GSSG ratio; 1,500 ppm inclusion in extruded food): 24 +/− 7 | Difference in GSH:GSSG ratio- day 0 to day 84 compared to baseline food (GSH:GSSG ratio; 3,000 ppm inclusion in extruded food): 10 +/− 4 | Difference in GSH:GSSG ratio- day 0 to day 84 compared to baseline food (GSH:GSSG ratio; 4,500 ppm inclusion in extruded food): 50 +/− 36 | Effect on GSH to GSSG ratio (GSH:GSSG ratio; chronic feeding in diet): improves the reduced glutathione (GSH) to oxidized glutathione (GSSG) ratio | Body weight (dogs [1]; 4500 ppm inclusion group, change appeared to reverse by 6 months): some weight loss occurred initially | Chronic feeding in diet: safety (dogs [1]; dog, in vivo): safe and effective | Change in weight (dogs [2]; 90 day treatment period, vs control and control plus fish oil): greatest change in weight | Total Weight (dogs [2]; [6]): 13,800 g | Total fat (dogs [2]; [6]): 2788.3 g | Body fat (dogs [2]; [7]): lost fat | Change in fat (dogs [2]; over 90 days, dogs): -587.2 g | Change in weight (dogs [2]; over 90 days, dogs): -637.5 g | Change in pyruvate blood levels (plasma metabolites; 30 day treatment period, vs control and control plus fish oil): greatest change in pyruvate blood levels | Kidney markers in blood (plasma metabolites; after 30 days, control plus lipoic acid): decreased kidney markers | Fold change in pyruvate measured in the blood, Lipoic acid vs Control (plasma metabolites; [8]): 0.5379 | Fold change in pyruvate measured in the blood, Lipoic acid vs Fish oil (plasma metabolites; [8]): 0.6274 | Plasma hydroxyproline (plasma metabolites; [7]): reduced in plasma | Fold change 12-lipooxygenase [3, 9]: −1.3 | Fold change Chondroitan sulfate synthase 1 [3, 9]: 1.4 | Fold change Facilitated glucose transporter 9 [3, 9]: 1.4 | Fold change Prolyl hydroxylase alpha 1 [3, 9]: 1.4 | Fold change Prolyl hydroxylase alpha 2 [3, 9]: 1.3 | Fold change TIMP1 [3, 9]: 1.3 | Fold change chondroitan sulfate proteoglycan 2 (veriscan) [3, 9]: 1.5 | Fold change heparan sulfate N-deacetylase/N-sulfotransferase 2 [3, 9]: 1.3 | Fold change 5′ AMP alpha 1 [3, 10]: 1.3 | Fold change 5′ AMP beta 1 [3, 10]: 1.3 | Fold change 5′ AMP gamma 2 [3, 10]: 1.4 | Fold change Facilitated glucose transporter 1 [3, 10]: 1.3 | Fold change Facilitated glucose transporter 6 [3, 10]: 1 .3 | Fold change Fatty acid desaturase 1 [3, 10]: 1.9 | Fold change Hexokinase 3 [3, 10]: 1.3 | Fold change PDK4 [3, 10]: 1.4 | Fold change PPAR gamma [3, 10]: 1.3 | Fold change Succinyl CoA ligase alpha [3, 10]: 1.3 | Fold change 12-lipooxygenase [3, 11]: −1.3 | Fold change ADAMTS-2 [3, 11]: −1.3 | Fold change ADAMTS-10 [3, 11]: −1.3 | Fold change ADAMTS-16 [3, 11]: −1.3 | Fold change Chondroitan sulfate synthase 1 [3, 11]: 1.3 | Fold change Facilitated glucose transporter 9 [3, 11]: 1.4 | Fold change Fibronectin 1 [3, 11]: 1.4 | Fold change Lysyl hydroxylase [3, 11]: 1.3 | Fold change MMP2 [3, 11]: −1.3 | Fold change MMP7 [3, 11]: −1.3 | Fold change N-acetylgalactosaminyltransferase 1 [3, 11]: 1.3 | Fold change Transforming growth factor beta receptor 1 [3, 11]: 1.3 | Fold change chondroitan sulfate proteoglycan 2 (veriscan) [3, 11]: 1.5 | Fold change 5′ AMP alpha 1 [3, 12]: 1.3 | Fold change 5′ AMP beta 1 [3, 12]: 1.3 | Fold change 5′ AMP gamma 2 [3, 12]: 1.5 | Fold change Facilitated glucose transporter 1 [3, 12]: 1.3 | Fold change Facilitated glucose transporter 6 [3, 12]: 1.4 | Fold change Hexokinase 3 [3, 12]: 1.3 | Fold change PDK4 [3, 12]: 1.6 | Fold change PPAR gamma [3, 12]: 1.3 | Fold change SREBP-1 [3, 12]: −1.3 | Fold change Succinyl CoA ligase alpha [3, 12]: 1.3 | Fold change Succinyl CoA ligase beta [3, 12]: 1.3 | Fold change cAMP responsice element modulator [3, 12]: 1.3 | Genomic resemblance to physically fat dogs (dogs [4]; after a 30 day treatment period, control plus lipoic acid): genomically did not resemble physically fat dogs | Percentage of animals at d 30 that classified fat using genomic markers (dogs [4]; d 30, dogs): 0% | Change in carboxy-terminal crosslinked telopeptide fragment of type II collagen [5]: greater decrease | Change in type II collagen C-propeptide [5]: greater decrease

Reference: US20110269828A1, “COMPOSITIONS AND METHODS FOR TREATING AND PREVENTING WEIGHT-RELATED DISORDERS IN COMPANION ANIMALS” (Hill's Pet Nutrition, Inc., priority 2008, published 2011)
